Laboratory results reported in the supplement of paper PMC12406974.

Key:
Experiment in all cases: maximum observed lethal fraction; higher = more cell death
[1] = system: U2OS PTBP1-KO
[2] = system: U2OS BCL2L12-KO
[3] = system: U2OS
[4] = system: U2OS BAX/BAK1 DKO
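Further: FLICK assay: SYTOX Green fluorescence of dead cells tracked over time after drugging in 96-well plates, with total cell counts taken from Triton X-100 lysed wells.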

CC1(C)CCC(c2ccc(Cl)cc2)=C(CN2CCN(c3ccc(C(=O)NS(=O)(=O)c4ccc(N[C@H](CCN5CCOCC5)CSc5ccccc5)c(S(=O)(=O)C(F)(F)F)c4)cc3)CC2)C1 [ABT-263]
maximum observed lethal fraction
Conditions | 0.1 µM | 0.316 µM | 1 µM | 3.16 µM | 10 µM | 31.6 µM | 100 µM
[1] | 0.0713 | 0.0786 | 0.0982 | 0.131 | 0.192 | 0.771 | 1
[2] | 0.0718 | 0.0885 | 0.121 | 0.225 | 0.26 | 0.821 | 1
[3] | 0.0623 | 0.0847 | 0.106 | 0.2 | 0.247 | 0.683 | 0.984
[4] | 0.0556 | 0.0535 | 0.0545 | 0.0548 | 0.0634 | 0.172 | 0.43

CC[C@@]1(O)C(=O)OCc2c1cc1n(c2=O)Cc2cc3ccccc3nc2-1 [Camptothecin]
maximum observed lethal fraction
Conditions | 0.01 µM | 0.0316 µM | 0.1 µM | 0.316 µM | 1 µM | 3.16 µM | 10 µM
[1] | 0.0712 | 0.0841 | 0.0812 | 0.0849 | 0.107 | 0.295 | 0.328
[2] | 0.0758 | 0.083 | 0.0852 | 0.101 | 0.307 | 0.664 | 0.8
[3] | 0.0607 | 0.0661 | 0.0732 | 0.0916 | 0.379 | 0.625 | 0.786
[4] | 0.0607 | 0.0659 | 0.0708 | 0.0816 | 0.0795 | 0.0879 | 0.0915

CCN1CCN(Cc2ccc(Nc3ncc(F)c(-c4cc(F)c5nc(C)n(C(C)C)c5c4)n3)nc2)CC1 [Abemaciclib]
maximum observed lethal fraction
Conditions | 0.01 µM | 0.0316 µM | 0.1 µM | 0.316 µM | 1 µM | 3.16 µM | 10 µM
[1] | 0.0734 | 0.0787 | 0.081 | 0.0922 | 0.161 | 0.257 | 0.739
[2] | 0.0701 | 0.071 | 0.073 | 0.0769 | 0.211 | 0.457 | 0.889
[3] | 0.0681 | 0.0675 | 0.0675 | 0.0855 | 0.376 | 0.314 | 0.851
[4] | 0.0682 | 0.0681 | 0.0721 | 0.0802 | 0.0972 | 0.0964 | 0.339

COC(=O)C[C@](O)(CCCC(C)(C)O)C(=O)O[C@@H]1C(OC)=C[C@]23CCCN2CCc2cc4c(cc2[C@H]13)OCO4 [Homoharringtonine]
maximum observed lethal fraction
Conditions | 0.01 µM | 0.0316 µM | 0.1 µM | 0.316 µM | 1 µM | 3.16 µM | 10 µM
[1] | 0.0765 | 0.165 | 0.0974 | 0.109 | 0.186 | 0.184 | 0.197
[2] | 0.0701 | 0.0909 | 0.0937 | 0.102 | 0.0962 | 0.115 | 0.21
[3] | 0.0607 | 0.0942 | 0.296 | 0.395 | 0.578 | 0.692 | 0.722
[4] | 0.0663 | 0.099 | 0.0992 | 0.106 | 0.112 | 0.102 | 0.106

COc1cc([C@@H]2c3cc4c(cc3[C@@H](O[C@@H]3O[C@@H]5CO[C@@H](c6cccs6)O[C@H]5[C@H](O)[C@H]3O)[C@H]3COC(=O)[C@H]23)OCO4)cc(OC)c1O [Teniposide]
maximum observed lethal fraction
Conditions | 0.0316 µM | 0.1 µM | 0.316 µM | 1 µM | 3.16 µM | 10 µM | 31.6 µM
[1] | 0.079 | 0.0821 | 0.0892 | 0.383 | 0.686 | 0.763 | 0.815
[2] | 0.0736 | 0.0745 | 0.0806 | 0.355 | 0.728 | 0.801 | 0.968
[3] | 0.0732 | 0.0749 | 0.0834 | 0.373 | 0.714 | 0.804 | 0.867
[4] | 0.0788 | 0.0806 | 0.0807 | 0.0902 | 0.106 | 0.205 | 0.299

CO[C@H]1C[C@@H]2CC[C@@H](C)[C@@](O)(O2)C(=O)C(=O)N2CCCC[C@H]2C(=O)O[C@H]([C@H](C)C[C@@H]2CC[C@@H](O)[C@H](OC)C2)CC(=O)[C@H](C)/C=C(\C)[C@@H](O)[C@@H](OC)C(=O)[C@H](C)C[C@H](C)/C=C/C=C/C=C/1C [Rapamycin]
maximum observed lethal fraction
Conditions | 0.01 µM | 0.0316 µM | 0.1 µM | 0.316 µM | 1 µM | 3.16 µM | 10 µM
[1] | 0.0742 | 0.0686 | 0.0757 | 0.0711 | 0.0784 | 0.0724 | 0.0767
[2] | 0.0761 | 0.0732 | 0.0721 | 0.0738 | 0.0786 | 0.084 | 0.0965
[3] | 0.062 | 0.0603 | 0.0606 | 0.0645 | 0.061 | 0.0607 | 0.0674
[4] | 0.0624 | 0.0616 | 0.0646 | 0.0631 | 0.0613 | 0.0695 | 0.0695

CC(=O)[C@]1(O)Cc2c(O)c3c(c(O)c2[C@@H](O[C@H]2C[C@H](N)[C@H](O)[C@H](C)O2)C1)C(=O)c1ccccc1C3=O [Idarubicin]
maximum observed lethal fraction
Conditions | 0.001 µM | 0.00316 µM | 0.01 µM | 0.0316 µM | 0.1 µM | 0.316 µM | 1 µM
[1] | 0.077 | 0.0792 | 0.0832 | 0.2 | 0.633 | 0.589 | 0.305
[2] | 0.0766 | 0.088 | 0.0897 | 0.231 | 0.74 | 0.724 | 0.321
[3] | 0.0637 | 0.0722 | 0.0707 | 0.166 | 0.666 | 0.792 | 0.604
[4] | 0.0756 | 0.0795 | 0.0849 | 0.0871 | 0.212 | 0.18 | 0.193

CC(=O)N[C@H]1[C@@H](O[C@@H]2O[C@H](CC(O)[C@H]3O[C@@H](n4ccc(=O)[nH]c4=O)[C@H](O)[C@@H]3O)[C@H](O)[C@H](O)[C@H]2NC(=O)/C=C/CC(C)C)O[C@H](CO)[C@@H](N)[C@@H]1O (some centres undefined) [Tunicamycin]
maximum observed lethal fraction
Conditions | 0.01 µM | 0.0316 µM | 0.1 µM | 0.316 µM | 1 µM | 3.16 µM | 10 µM
[1] | 0.0696 | 0.0731 | 0.0724 | 0.0808 | 0.104 | 0.345 | 0.533
[2] | 0.0673 | 0.0693 | 0.0857 | 0.196 | 0.58 | 0.86 | 0.873
[3] | 0.0548 | 0.0561 | 0.0662 | 0.0886 | 0.347 | 0.692 | 0.82
[4] | 0.0556 | 0.0546 | 0.0609 | 0.0665 | 0.0788 | 0.089 | 0.0844

O=C(O)C1(C(=O)O)CCC1.[NH2-].[NH2-].[Pt+2] [Carboplatin]
maximum observed lethal fraction
Conditions | 0.316 µM | 1 µM | 3.16 µM | 10 µM | 31.6 µM | 100 µM | 316 µM
[1] | 0.0634 | 0.0611 | 0.0647 | 0.0661 | 0.0674 | 0.0762 | 0.54
[2] | 0.0652 | 0.0616 | 0.0672 | 0.0691 | 0.0714 | 0.0762 | 0.342
[3] | 0.0493 | 0.052 | 0.0533 | 0.0546 | 0.056 | 0.0693 | 0.517
[4] | 0.0602 | 0.0593 | 0.0612 | 0.0614 | 0.0671 | 0.0722 | 0.0825

CN[C@@H]1C[C@H]2O[C@@](C)([C@@H]1OC)n1c3ccccc3c3c4c(c5c6ccccc6n2c5c31)C(=O)NC4 [Staurosporine]
maximum observed lethal fraction
Conditions | 0.01 µM | 0.0316 µM | 0.1 µM | 0.316 µM | 1 µM | 3.16 µM | 10 µM
[1] | 0.476 | 0.77 | 0.93 | 0.878 | 0.737 | 0.781 | 0.864
[2] | 0.437 | 0.593 | 0.936 | 0.877 | 0.736 | 0.725 | 0.894
[3] | 0.508 | 0.709 | 0.903 | 0.819 | 0.71 | 0.642 | 0.811
[4] | 0.104 | 0.113 | 0.125 | 0.121 | 0.125 | 0.136 | 0.254

CC[C@@]1(O)C(=O)OCc2c1cc1n(c2=O)Cc2cc3c(CN(C)C)c(O)ccc3nc2-1 [Topotecan]
maximum observed lethal fraction
Conditions | 0.0316 µM | 0.1 µM | 0.316 µM | 1 µM | 3.16 µM | 10 µM | 31.6 µM
[1] | 0.0741 | 0.0838 | 0.0808 | 0.0858 | 0.106 | 0.197 | 0.329
[2] | 0.0781 | 0.0819 | 0.0871 | 0.0968 | 0.208 | 0.495 | 0.798
[3] | 0.0699 | 0.0706 | 0.0756 | 0.0868 | 0.233 | 0.5 | 0.683
[4] | 0.0741 | 0.0822 | 0.0765 | 0.0845 | 0.0931 | 0.0974 | 0.177

NC(=O)c1cccc2cn(-c3ccc([C@@H]4CCCNC4)cc3)nc12 [Niraparib]
maximum observed lethal fraction
Conditions | 0.1 µM | 0.316 µM | 1 µM | 3.16 µM | 10 µM | 31.6 µM | 100 µM
[1] | 0.0698 | 0.0678 | 0.0749 | 0.0795 | 0.0839 | 0.396 | 0.964
[2] | 0.0692 | 0.0678 | 0.0775 | 0.0795 | 0.0934 | 0.86 | 0.928
[3] | 0.0543 | 0.0611 | 0.0677 | 0.067 | 0.0744 | 0.716 | 0.968
[4] | 0.0556 | 0.0569 | 0.065 | 0.0723 | 0.0787 | 0.342 | 0.936

NC1(C(=O)N[C@@H](CCO)c2ccc(Cl)cc2)CCN(c2nc[nH]c3nccc2-3)CC1 [Capivasertib]
maximum observed lethal fraction
Conditions | 0.0316 µM | 0.1 µM | 0.316 µM | 1 µM | 3.16 µM | 10 µM | 31.6 µM
[1] | 0.0937 | 0.0911 | 0.0962 | 0.0997 | 0.111 | 0.132 | 0.22
[2] | 0.0788 | 0.0816 | 0.0788 | 0.0844 | 0.0929 | 0.108 | 0.236
[3] | 0.0687 | 0.066 | 0.0671 | 0.0702 | 0.0868 | 0.109 | 0.201
[4] | 0.0665 | 0.0661 | 0.0653 | 0.0697 | 0.074 | 0.078 | 0.0858
